SMILES strings stand for the structures.

The assay relates to STZ-induced type 2 diabetic mice. The assay can be described thus: In vivo effect on glucose levels in diabetic mice. Particulars: 10 mg/kg/day in diet; relative to control mice and mice treated with rosiglitazone (5 mg/kg/day in diet). Here is the method: The leftmost black solid bar represents diabetic control mice, the second from left black solid bar represents mice treated for one week with rosiglitazone at 5 mg/kg/day; the third from left black solid bar represents mice treated for one week with Compound 174 at 10 mg/kg/day; the fourth from left black solid bar represents mice treated for one week with Compound 174 at 1 mg/kg/day; and the white bar represents nondiabetic control mice. The y-axis indicates non-fasting glucose levels (mg/dl).
Five-week-old male ICR mice were purchased from Taconic Farm (Germantown, N.Y.) and placed on a “western diet” containing 45% (kcal) fat from lard and 0.12% (w/w) cholesterol. After 3 weeks of feeding, the mice were injected once with low dose streptozocin (STZ, ip 75-100 mg/kg) to induce partial insulin deficiency. […] The diabetic mice were then placed in one of groups: (1) a non-treated diabetic control group, (2) a group treated with rosiglitazone (5 mg/kg/day in diet); (3) a group treated with Compound 174(10/mg/kg in diet) for four weeks; and (4) a group treated with Compound 174 (1/mg/kg in diet) for four weeks.

Turning to `Nc1cc(CN2CCC(C(=O)N3CCC(n4c(-c5ccc(F)c(F)c5)nc5cccnc54)CC3)CC2)ccn1` [Compound 174], the HbA1C levels result is “significantly reduced” and the non-fasting glucose levels result is “significantly reduced”.
